Values quoted from earlier work as cited in patent publication US20230404964A1, “COMBINATION FOR REDUCING OXIDATIVE STRESS IN THE BODY AND MAINTAINING LIVER FUNCTIONS” (priority 2020, published 2023).
Values joined by “and” are separate entries in the source; they are usually repeats but may differ in a detail not shown here. Identical values can stand only once.

System: HUVEC cells
Details: pretreatment with DHM 37.5-300 μmol, hydrogen peroxide

## O=C1c2c(O)cc(O)cc2O[C@H](c2cc(O)c(O)c(O)c2)[C@H]1O [DHM, Dihydromyricetin]
Depending on the dose
  decrease in apoptosis: 14.83% and 11.1% and 9.12%
  MDA concentration (in words): decrease in the MDA concentration
  production of reactive oxygen species (in words): significant decrease in the production of reactive oxygen species
